Activity calls are given as the source filed them. The calls are words filed in the database; no cut-off is given here. Bridge positions count the residues as written; N and C are the ends. Peptide text beside a SMILES is read from it.
Key:
Erythrocyte = experiment: Hemolytic activity in mouse erythrocytes assessed as hemolysis at 100 uM; assay type: toxicity, cell-based
[1] = tested on: Staphylococcus epidermidis; experiment: Antimicrobial activity against penicillin-resistant Staphylococcus epidermidis P1389 at 1 nmol relative to control; assay type: functional, organism-based
Beauveria bassiana = experiment: Antifungal activity against Beauveria bassiana 252 at 1 nmol relative to control; assay type: functional, organism-based
Pseudomonas aeruginosa [2] = experiment: Antimicrobial activity against Pseudomonas aeruginosa 11082616 at 1 nmol relative to control; assay type: functional, organism-based
Micrococcus luteus = experiment: Antimicrobial activity against Micrococcus luteus CGMCC 1.0290 assessed as lethal concentration; assay type: functional
Escherichia coli [3] = experiment: Antimicrobial activity against Escherichia coli DH5alpha at 1 nmol relative to control; assay type: functional, organism-based
Streptococcus salivarius = experiment: Antimicrobial activity against Streptococcus salivarius ATCC 1.2498 at 1 nmol relative to control; assay type: functional, organism-based
Pseudomonas aeruginosa [4] = experiment: Antimicrobial activity against Pseudomonas aeruginosa 11092618 at 1 nmol relative to control; assay type: functional, organism-based
Pseudomonas aeruginosa [5] = experiment: Antimicrobial activity against Pseudomonas aeruginosa at 1 nmol relative to control; assay type: functional, organism-based
Streptococcus mutans = experiment: Antimicrobial activity against Streptococcus mutans ATCC 1.2499 at 1 nmol relative to control; assay type: functional, organism-based
Escherichia coli [6] = experiment: Antimicrobial activity against Escherichia coli G2b at 1 nmol relative to control; assay type: functional, organism-based
Escherichia coli [7] = experiment: Antimicrobial activity against Escherichia coli J45b at 1 nmol relative to control; assay type: functional, organism-based
Staphylococcus = experiment: Antimicrobial activity against methicillin-resistant coagulase negative Staphylococcus P1369 assessed as lethal concentration; assay type: functional
Escherichia coli [8] = experiment: Antimicrobial activity against Escherichia coli J14b at 1 nmol relative to control; assay type: functional, organism-based
Streptococcus sanguinis [9] = experiment: Antimicrobial activity against Streptococcus sanguinis ATCC 1.2497 at 1 nmol relative to control; assay type: functional, organism-based
Curtobacterium luteum = experiment: Antimicrobial activity against Curtobacterium luteum assessed as lethal concentration; assay type: functional
Alcaligenes faecalis = experiment: Antimicrobial activity against Alcaligenes faecalis CGMCC 1.1837 at 1 nmol relative to control; assay type: functional, organism-based
Staphylococcus aureus [10] = experiment: Antimicrobial activity against methicillin-resistant Staphylococcus aureus P1386 at 1 nmol relative to control; assay type: functional, organism-based
Pseudomonas aeruginosa [11] = experiment: Antimicrobial activity against Pseudomonas aeruginosa QT1 at 1 nmol relative to control; assay type: functional, organism-based
[12] = Retention time of the compound by RP-HPLC analysis; assay type: physicochemical
Aspergillus flavus = experiment: Antifungal activity against Aspergillus flavus at 1 nmol relative to control; assay type: functional, organism-based
[13] = tested on: Stenotrophomonas maltophilia; experiment: Antimicrobial activity against Stenotrophomonas maltophilia CGMCC 1.1788 at 1 nmol relative to control; assay type: functional, organism-based
Staphylococcus aureus [14] = experiment: Antimicrobial activity against penicillin-resistant Staphylococcus aureus P1383 at 1 nmol relative to control; assay type: functional, organism-based
Pseudomonas aeruginosa [15] = experiment: Antimicrobial activity against Pseudomonas aeruginosa 374 at 1 nmol relative to control; assay type: functional, organism-based
Geotrichum candidum = experiment: Antifungal activity against Geotrichum candidum CCTCC AY 93038 at 1 nmol relative to control; assay type: functional, organism-based
Salmonella enterica [16] = experiment: Antimicrobial activity against Salmonella enterica ATCC 14028 at 1 nmol relative to control; assay type: functional, organism-based
Pseudomonas aeruginosa [17] = experiment: Antimicrobial activity against Pseudomonas aeruginosa 11092304 at 1 nmol relative to control; assay type: functional, organism-based
Metarhizium robertsii = experiment: Antifungal activity against Metarhizium robertsii at 1 nmol relative to control; assay type: functional, organism-based
Salmonella enterica [18] = experiment: Antimicrobial activity against Salmonella enterica ATCC 14028 at 0.25 to 1 nmol; assay type: functional, organism-based; conditions: dose 0.25-1 nmol
Staphylococcus aureus [19] = experiment: Antimicrobial activity against Staphylococcus aureus J685 at 1 nmol relative to control; assay type: functional, organism-based
Pseudomonas aeruginosa [20] = experiment: Antimicrobial activity against Pseudomonas aeruginosa O1 at 1 nmol relative to control; assay type: functional, organism-based
Ralstonia solanacearum = experiment: Antimicrobial activity against Ralstonia solanacearum at 1 nmol relative to control; assay type: functional, organism-based
Escherichia coli [21] = experiment: Antimicrobial activity against Escherichia coli J23a at 1 nmol relative to control; assay type: functional, organism-based
Staphylococcus warneri = experiment: Antimicrobial activity against Staphylococcus warneri ATCC 1.2824 at 1 nmol relative to control; assay type: functional, organism-based
[22] = tested on: Lysinibacillus fusiformis; experiment: Antimicrobial activity against Lysinibacillus fusiformis at 1 nmol relative to control; assay type: functional, organism-based
Pseudomonas aeruginosa [23] = experiment: Antimicrobial activity against Pseudomonas aeruginosa 11082603 at 1 nmol relative to control; assay type: functional, organism-based
Escherichia coli [24] = experiment: Antimicrobial activity against Escherichia coli J16c at 1 nmol relative to control; assay type: functional, organism-based
Pseudomonas aeruginosa [25] = experiment: Antimicrobial activity against Pseudomonas aeruginosa FRD1 at 1 nmol relative to control; assay type: functional, organism-based
Aspergillus nidulans = experiment: Antifungal activity against Aspergillus nidulans A28 at 1 nmol relative to control; assay type: functional, organism-based
Bacillus subtilis [26] = experiment: Antimicrobial activity against Bacillus subtilis CGMCC 1.2428 at 1 nmol relative to control; assay type: functional, organism-based
Staphylococcus aureus [27] = experiment: Antimicrobial activity against methicillin-resistant Staphylococcus aureus P1374 at 1 nmol relative to control; assay type: functional, organism-based
Priestia megaterium = experiment: Antimicrobial activity against Bacillus megaterium CGMCC 1.0459 assessed as lethal concentration; assay type: functional
Aspergillus niger = experiment: Antifungal activity against Aspergillus niger at 1 nmol relative to control; assay type: functional, organism-based
Aspergillus fumigatus = experiment: Antifungal activity against Aspergillus fumigatus YJ-407 at 1 nmol relative to control; assay type: functional, organism-based
Komagataella pastoris = experiment: Antifungal activity against Pichia pastoris X33 at 1 nmol relative to control; assay type: functional, organism-based
Pseudomonas aeruginosa [28] = experiment: Antimicrobial activity against Pseudomonas aeruginosa DH at 1 nmol relative to control; assay type: functional, organism-based
Staphylococcus aureus [29] = experiment: Antimicrobial activity against methicillin-resistant Staphylococcus aureus P1374 assessed as lethal concentration; assay type: functional
[30] = tested on: Staphylococcus epidermidis; experiment: Antimicrobial activity against penicillin-resistant Staphylococcus epidermidis P1389 assessed as lethal concentration; assay type: functional
Bacillus subtilis [31] = experiment: Antimicrobial activity against Bacillus subtilis CGMCC 1.2428 assessed as lethal concentration; assay type: functional
Staphylococcus aureus [32] = experiment: Antimicrobial activity against Staphylococcus aureus J685 assessed as lethal concentration; assay type: functional
Streptococcus sanguinis [33] = experiment: Antimicrobial activity against Streptococcus sanguinis ATCC 1.2497 assessed as lethal concentration; assay type: functional
[34] = tested on: Lysinibacillus fusiformis; experiment: Antimicrobial activity against Lysinibacillus fusiformis assessed as lethal concentration; assay type: functional

For H-FFGHLFKLATKIIPSLFQ-OH, the Activity (Erythrocyte) was “Non-Toxic”.
With `CC[C@H](C)[C@@H]1NC(=O)[C@H](CCCCN)NC(=O)[C@H](CC(N)=O)NC(=O)[C@H](CC(N)=O)NC(=O)[C@@H]2CSSC[C@H](NC1=O)C(=O)N[C@@H](C(C)C)C(=O)N[C@H](C(=O)N[C@@H](CCCNC(=N)N)C(=O)N[C@@H](CCCNC(=N)N)C(=O)O)CSSC[C@H](NC(=O)[C@@H](NC(=O)[C@H](C)N)[C@@H](C)O)C(=O)N[C@@H](Cc1ccc(O)cc1)C(=O)N2` (H-ATCYCNNKICVCRR-OH; disulfide 3-12, 5-10) the Activity [1] was “inactive”, the Activity (Beauveria bassiana) was “inactive” and the Activity (Pseudomonas aeruginosa [2]) was “inactive”. For the same compound, the LD (Micrococcus luteus) was 3.52 µM, the Activity (Escherichia coli [3]) was “inactive” and the Activity (Streptococcus salivarius) was “inactive”. For the same compound, the Activity (Pseudomonas aeruginosa [4]) was “inactive”, the Activity (Pseudomonas aeruginosa [5]) was “inactive” and the Activity (Streptococcus mutans) was “inactive”. For the same compound, the Activity (Escherichia coli [6]) was “inactive”, the Activity (Escherichia coli [7]) was “inactive” and the LD (Staphylococcus) was 5.3 µM. The Activity (Escherichia coli [8]) was “inactive”, the Activity (Streptococcus sanguinis [9]) was “inactive” and the LD (Curtobacterium luteum) was 4.3 µM. The Activity (Alcaligenes faecalis) was “inactive”, the Activity (Staphylococcus aureus [10]) was “inactive” and the Activity (Pseudomonas aeruginosa [11]) was “inactive”. The Retention_time [12] was 16 min, the Activity (Aspergillus flavus) was “inactive” and the Activity [13] was “inactive”. The Activity (Staphylococcus aureus [14]) was “inactive”, the Activity (Pseudomonas aeruginosa [15]) was “inactive” and the Activity (Geotrichum candidum) was “inactive”. For the same compound, the Activity (Salmonella enterica [16]) was “inactive”, the Activity (Pseudomonas aeruginosa [17]) was “inactive” and the Activity (Metarhizium robertsii) was “inactive”. For the same compound, the Activity (Salmonella enterica [18]) was “inactive”, the Activity (Staphylococcus aureus [19]) was “inactive” and the Activity (Pseudomonas aeruginosa [20]) was “inactive”. For the same compound, the Activity (Ralstonia solanacearum) was “inactive”, the Activity (Escherichia coli [21]) was “inactive” and the Activity (Staphylococcus warneri) was “inactive”. The Activity [22] was “inactive”, the Activity (Pseudomonas aeruginosa [23]) was “inactive” and the Activity (Escherichia coli [24]) was “inactive”. The Activity (Pseudomonas aeruginosa [25]) was “inactive”, the Activity (Aspergillus nidulans) was “inactive” and the Activity (Bacillus subtilis [26]) was “inactive”. For the same compound, the Activity (Staphylococcus aureus [27]) was “inactive”, the LD (Priestia megaterium) was 2.58 µM and the Activity (Aspergillus niger) was “inactive”. The Activity (Aspergillus fumigatus) was “inactive”, the Activity (Komagataella pastoris) was “inactive” and the Activity (Pseudomonas aeruginosa [28]) was “inactive”.
With `CC[C@H](C)[C@H](NC(=O)[C@H](C)NC(=O)[C@H](CCCCN)NC(=O)[C@H](CC(N)=O)NC(=O)[C@H](CC(N)=O)NC(=O)[C@H](CS)NC(=O)[C@H](Cc1ccc(O)cc1)NC(=O)[C@H](CS)NC(=O)[C@@H](NC(=O)[C@H](C)N)[C@@H](C)O)C(=O)N[C@@H](CS)C(=O)N[C@H](C(=O)N[C@H](CS)C(=O)N[C@H](CCCNC(=N)N)C(=O)N[C@H](CCCNC(=N)N)C(N)=O)C(C)C` the Activity (Beauveria bassiana) was “inactive”, the Activity (Pseudomonas aeruginosa [2]) was “inactive” and the LD (Micrococcus luteus) was 1.96 µM. For the same compound, the Activity (Escherichia coli [3]) was “inactive”, the Activity (Streptococcus salivarius) was “inactive” and the Activity (Pseudomonas aeruginosa [4]) was “inactive”. For the same compound, the Activity (Pseudomonas aeruginosa [5]) was “inactive”, the Activity (Escherichia coli [6]) was “inactive” and the Activity (Escherichia coli [7]) was “inactive”. For the same compound, the LD (Staphylococcus aureus [29]) was 14.29 µM, the LD (Staphylococcus) was 4.31 µM and the Activity (Escherichia coli [8]) was “inactive”. The LD (Curtobacterium luteum) was 0.13 µM, the Activity (Alcaligenes faecalis) was “inactive” and the Activity (Staphylococcus aureus [10]) was “inactive”. The Activity (Pseudomonas aeruginosa [11]) was “inactive”, the Retention_time [12] was 15.2 min and the Activity (Aspergillus flavus) was “inactive”. For the same compound, the Activity [13] was “inactive”, the Activity (Pseudomonas aeruginosa [15]) was “inactive” and the LD [30] was 4.1 µM. The Activity (Geotrichum candidum) was “inactive”, the Activity (Salmonella enterica [16]) was “inactive” and the Activity (Pseudomonas aeruginosa [17]) was “inactive”. For the same compound, the Activity (Metarhizium robertsii) was “inactive”, the Activity (Staphylococcus aureus [19]) was “inactive” and the Activity (Pseudomonas aeruginosa [20]) was “inactive”. For the same compound, the Activity (Ralstonia solanacearum) was “inactive”, the LD (Bacillus subtilis [31]) was 3.54 µM and the Activity (Escherichia coli [21]) was “inactive”. For the same compound, the Activity (Staphylococcus warneri) was “inactive”, the LD (Staphylococcus aureus [32]) was 8.34 µM and the Activity (Pseudomonas aeruginosa [23]) was “inactive”. The Activity (Escherichia coli [24]) was “inactive”, the Activity (Pseudomonas aeruginosa [25]) was “inactive” and the Activity (Aspergillus nidulans) was “inactive”. The LD (Streptococcus sanguinis [33]) was 10.4 µM, the LD [34] was 5.35 µM and the LD (Priestia megaterium) was 2.44 µM. The Activity (Aspergillus niger) was “inactive”, the Activity (Aspergillus fumigatus) was “inactive” and the Activity (Komagataella pastoris) was “inactive”. The Activity (Pseudomonas aeruginosa [28]) was “inactive”.

Source: ChEMBL document CHEMBL5528052, “Single Deletion Unmasks Hidden Anti-Gram-Negative Bacterial Activity of an Insect Defensin-Derived Peptide” (J Med Chem, 2024)
